Assay results from US6399541B1, “Substituted 2,4-diamino-1,3,5-triazines as herbicides” (Bayer Aktiengesellschaft, priority 1997, dated 2002).

Assays:
Format in all cases: in vivo
weeds [1] = test: Pre-emergence test; settings: cf. Table A
Procedure: (§1) Solvent: 5 parts by weight of acetone
(§2) Emulsifier: 1 part by weight of alkylaryl polyglycol ether
(§3) To produce a suitable preparation of active compound, 1 part by weight of active compound is mixed with the stated amount of solvent, the stated amount of emulsifier is added and the concentrate is diluted with water to the desired concentration.
(§4) Seeds of the test plants are sown in normal soil. After about 24 hours, the soil is sprayed with the preparation of active compound in such a way that the particular amounts of active compound desired are employed per unit area. The concentration of the spray liquor is chosen such that the particular amounts of active compound desired are applied in 1000 l of water/ha.
(§5) After three weeks, the degree of damage to the plants is assessed in % damage in comparison to the development of the untreated control.
(§6) 0%=no effect (as untreated control) 100%=total destruction

Ipomoea [2] = test: Pre-emergence test/greenhouse; settings: 250 g of ai./ha, after three weeks
Procedure: as §1, §2, §3, §4, §5, §6

Lolium = test: Pre-emergence test/greenhouse; settings: 250 g of ai./ha, after three weeks
Procedure: as §1, §2, §3, §4, §5, §6

Amaranthus = test: Pre-emergence test/greenhouse; settings: after three weeks
Procedure: as §1, §2, §3, §4, §5, §6

Sorghum = test: Pre-emergence test/greenhouse; settings: 250 g of ai./ha, after three weeks
Procedure: as §1, §2, §3, §4, §5, §6

Abutilon = test: Pre-emergence test/greenhouse; settings: after three weeks
Procedure: as §1, §2, §3, §4, §5, §6

Alopecurus = test: Pre-emergence test/greenhouse; settings: after three weeks
Procedure: as §1, §2, §3, §4, §5, §6

Cassia [3] = test: Pre-emergence test/greenhouse; settings: 250 g of ai./ha, after three weeks
Procedure: as §1, §2, §3, §4, §5, §6

weeds [4] = test: Post-emergence test; settings: cf. Table B
Procedure: as §1, §2, §3
(§7) Test plants which have a height of 5 to 15 cm are sprayed with the preparation of active compound in such a way that the particular amounts of active compound desired are applied per unit area. The concentration of the spray liquor is chosen such that the particular amounts of active compound desired are applied in 1000 l of water/ha.
as §5
(§8) 0%=no effect (as untreated control)

Solanum [5] = test: Post-emergence test/greenhouse; settings: 60 g of ai./ha, after three weeks
Procedure: as §1, §2, §3, §7, §5, §8

Veronica [6] = test: Post-emergence test/greenhouse; settings: after three weeks
Procedure: as §1, §2, §3, §7, §5, §8

Wheat = test: Post-emergence test/greenhouse; settings: after three weeks
Procedure: as §1, §2, §3, §7, §5, §8

Cassia [7] = test: Post-emergence test/greenhouse; settings: after three weeks
Procedure: as §1, §2, §3, §7, §5, §8

Reapseed = test: Pre-emergence test/greenhouse; settings: after three weeks
Procedure: as §1, §2, §3, §4, §5, §6

Ipomoea [8] = test: Post-emergence test/greenhouse; settings: after three weeks
Procedure: as §1, §2, §3, §7, §5, §8

Xanthium [9] = test: Post-emergence test/greenhouse; settings: 125 g of ai./ha, after three weeks
Procedure: as §1, §2, §3, §7, §5, §8

Setaria [10] = test: Post-emergence test/greenhouse; settings: 125 g of ai./ha, after three weeks
Procedure: as §1, §2, §3, §7, §5, §8

Matricaria [11] = test: Post-emergence test/greenhouse; settings: 125 g of ai./ha, after three weeks
Procedure: as §1, §2, §3, §7, §5, §8

Echinochloa = test: Post-emergence test/greenhouse; settings: 125 g of ai./ha, after three weeks
Procedure: as §1, §2, §3, §7, §5, §8

Barley [12] = test: Post-emergence test/greenhouse; settings: 125 g of ai./ha, after three weeks
Procedure: as §1, §2, §3, §7, §5, §8

Polygonum = test: Post-emergence test/greenhouse; settings: 60 g of ai./ha, after three weeks
Procedure: as §1, §2, §3, §7, §5, §8

Viola = test: Pre-emergence test/greenhouse; settings: 250 g of ai./ha, after three weeks
Procedure: as §1, §2, §3, §4, §5, §6

Galium = test: Pre-emergence test/greenhouse; settings: 1000 g of ai./ha, after three weeks
Procedure: as §1, §2, §3, §4, §5, §6

Solanum [13] = test: Pre-emergence test/greenhouse; settings: 125 g of ai./ha, after three weeks
Procedure: as §1, §2, §3, §4, §5, §6

Xanthium [14] = test: Pre-emergence test/greenhouse; settings: 1000 g of ai./ha, after three weeks
Procedure: as §1, §2, §3, §4, §5, §6

Setaria [15] = test: Pre-emergence test/greenhouse; settings: after three weeks
Procedure: as §1, §2, §3, §4, §5, §6

Veronica [16] = test: Pre-emergence test/greenhouse; settings: 250 g of ai./ha, after three weeks
Procedure: as §1, §2, §3, §4, §5, §6

Cotton = test: Pre-emergence test/greenhouse; settings: 250 g of ai./ha, after three weeks
Procedure: as §1, §2, §3, §4, §5, §6

Matricaria [17] = test: Pre-emergence test/greenhouse; settings: 125 g of ai./ha, after three weeks
Procedure: as §1, §2, §3, §4, §5, §6

Barley [18] = test: Pre-emergence test/greenhouse; settings: 250 g of ai./ha, after three weeks
Procedure: as §1, §2, §3, §4, §5, §6

Datura = test: Pre-emergence test/greenhouse; settings: 125 g of ai./ha, after three weeks
Procedure: as §1, §2, §3, §4, §5, §6

Chenopodium = test: Pre-emergence test/greenhouse; settings: 125 g of ai./ha, after three weeks
Procedure: as §1, §2, §3, §4, §5, §6

Avena fatua = test: Pre-emergence test/greenhouse; settings: after three weeks
Procedure: as §1, §2, §3, §4, §5, §6

CC(F)c1nc(N)nc(NC(C)c2ccccc2)n1 (racemic) [Example 16]
action against weeds compared with known compound (A) (weeds [1]): considerably strong action against weeds than the known compound (A)
degree of damage, Ipomoea (Ipomoea [2]): 100%
degree of damage, Lolium (Lolium): 100%
degree of damage, Amaranthus (Amaranthus; 250 g of ai./ha): 100%
degree of damage, Sorghum (Sorghum): 95%
degree of damage, Abutilon (Abutilon; 250 g of ai./ha): 80%
degree of damage, Alopecurus (Alopecurus; 250 g of ai./ha): 100%
degree of damage, Cassia (Cassia [3]): 100%

CC(Cl)c1nc(N)nc(NC(C)c2ccccc2)n1 (racemic) [Example 18]
activity against weeds compared with known compound (A) (weeds [4]): considerably stronger activity against weeds than the known compound (A)
degree of damage, Solanum (Solanum [5]): 90%
degree of damage, Veronica (Veronica [6]; 60 g of ai./ha): 95%
degree of damage, Wheat (Wheat; 60 g of ai./ha): 0%
degree of damage, Cassia (Cassia [7]; 60 g of ai./ha): 70%
action against weeds compared with known compound (A) (weeds [1]): considerably strong action against weeds than the known compound (A)
degree of damage, Ipomoea (Ipomoea [2]): 95%
degree of damage, Amaranthus (Amaranthus; 250 g of ai./ha): 100%
degree of damage, Reapseed (Reapseed; 250 g of ai./ha): 0%

CC(Nc1nc(N)nc(C(F)(F)F)n1)c1ccccc1 (centres unmarked) [(A), 2-Amino-4-(1-phenyl-ethylamino)-6-trifluoromethyl-1,3,5-triazine, reference compound]
degree of damage, Ipomoea (Ipomoea [8]; 60 g of ai./ha): 80%
degree of damage, Ipomoea (Ipomoea [8]; 125 g of ai./ha): 90%
degree of damage, Solanum (Solanum [5]): 40%
degree of damage, Xanthium (Xanthium [9]): 60%
degree of damage, Setaria (Setaria [10]): 50%
degree of damage, Veronica (Veronica [6]; 60 g of ai./ha): 70%
degree of damage, Veronica (Veronica [6]; 125 g of ai./ha): 90%
degree of damage, Matricaria (Matricaria [11]): 60%
degree of damage, Echinochloa (Echinochloa): 50%
degree of damage, Barley (Barley [12]): 5%
degree of damage, Polygonum (Polygonum): 80%
degree of damage, Wheat (Wheat; 60 g of ai./ha): 0%
degree of damage, Wheat (Wheat; 125 g of ai./ha): 0%
degree of damage, Cassia (Cassia [7]; 60 g of ai./ha): 40%
degree of damage, Cassia (Cassia [7]; 125 g of ai./ha): 80%
degree of damage, Ipomoea (Ipomoea [2]): 20%
degree of damage, Lolium (Lolium): 0%
degree of damage, Amaranthus (Amaranthus; 125 g of ai./ha): 40%
degree of damage, Amaranthus (Amaranthus; 250 g of ai./ha): 80%
degree of damage, Amaranthus (Amaranthus; 1000 g of ai./ha): 70%
degree of damage, Viola (Viola): 0%
degree of damage, Galium (Galium): 60%
degree of damage, Solanum (Solanum [13]): 0%
degree of damage, Reapseed (Reapseed; 125 g of ai./ha): 40%
degree of damage, Reapseed (Reapseed; 250 g of ai./ha): 40%
degree of damage, Xanthium (Xanthium [14]): 70%
degree of damage, Setaria (Setaria [15]; 250 g of ai./ha): 0%
degree of damage, Setaria (Setaria [15]; 1000 g of ai./ha): 20%
degree of damage, Veronica (Veronica [16]): 20%
degree of damage, Cotton (Cotton): 0%
degree of damage, Matricaria (Matricaria [17]): 0%
degree of damage, Sorghum (Sorghum): 0%
degree of damage, Abutilon (Abutilon; 250 g of ai./ha): 0%
degree of damage, Abutilon (Abutilon; 1000 g of ai./ha): 0%
degree of damage, Alopecurus (Alopecurus; 250 g of ai./ha): 30%
degree of damage, Alopecurus (Alopecurus; 1000 g of ai./ha): 30%
degree of damage, Barley (Barley [18]): 0%
degree of damage, Datura (Datura): 0%
degree of damage, Chenopodium (Chenopodium): 20%
degree of damage, Avena fatua (Avena fatua; 250 g of ai./ha): 0%
degree of damage, Avena fatua (Avena fatua; 1000 g of ai./ha): 0%
degree of damage, Cassia (Cassia [3]): 20%
